What was measured:
[1] = molecular target: T1, nrgECD (amino acids Ser2-Lys246 of neuregulin beta 1) (Homo sapiens, UniProt Q02297); assay: Biacore binding to nrgECD; conditions: immobilized nrgECD
T1 construct: Ser2-Lys246 of neuregulin beta 1; purchased R&D Sciences or SinoBiologicals
T1 sequence (Q02297 2-246 isoform Q02297-6): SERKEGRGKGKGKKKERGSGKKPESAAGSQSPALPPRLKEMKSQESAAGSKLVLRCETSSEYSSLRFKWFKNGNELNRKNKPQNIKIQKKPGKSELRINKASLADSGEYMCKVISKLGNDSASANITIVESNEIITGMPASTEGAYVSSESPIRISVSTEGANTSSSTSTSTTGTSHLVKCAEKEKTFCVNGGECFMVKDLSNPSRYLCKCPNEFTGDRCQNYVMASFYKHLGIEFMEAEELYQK
Method: (§1) Biacore binding was performed at David Myszka's laboratory at the University of Utah or at the Genomic Research Center at Academia Sinica. Surfaces of binding protein chimera were made via chemical immobilization on a CM4 chip using standard amine coupling chemistry. […] Excess surface carboxyl activated sites on all four flow cells was blocked using the doubly positively charged species ethylenediamine. Binding experiments (but not immobilizations) in HBS-P (10 mM HEPES pH 7.4, 150 mM NaCl, 0.05% P20), The HBS-P was supplemented with BSA at 0.2 mg/mL, or HBS-P was supplemented with 500 mM NaCl (650 mM NaCl, final concentration). Analytes were also reconstituted in the corresponding buffer. All experiments were performed at 25° C. 1/150 dilutions of phosphoric acid were used to regenerate IGFBP3-Fc surfaces and a sequence of 3 M MgCl2 followed by 5 M GuCl was used to regenerate surfaces immobilized with growth factor. Dissociation constants reported below used immobilized binding protein unless noted. Differences between binding constants may be expected between growth factor immobilization and chimera immobilization.
(§2) In this example, erbB4 domain 1 was attached to the N-terminus of the recombinant IGFBP3-Fc or the recombinant IGFBP3-v1v2-Fc.

[2] = molecular target: T2, nrgEGF (amino acids Thr176-Lys246 of neuregulin-beta 1) (Homo sapiens, UniProt Q02297); assay: Biacore binding to nrgEGF
T2 construct: Thr176-Lys246 of neuregulin-beta 1; purchased R&D Sciences or SinoBiologicals
T2 sequence (Q02297 176-246 isoform Q02297-6): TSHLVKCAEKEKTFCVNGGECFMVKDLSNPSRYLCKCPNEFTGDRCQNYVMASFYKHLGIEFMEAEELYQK
Method: as §1, §2

[3] = molecular target: T3, EGF (Homo sapiens, UniProt P01133); assay: Binding to EGF
T3 construct: purchased R&D Sciences or SinoBiologicals
Text: Table 3 lists the correlation between the IGFBP3 growth factor binding as determined by the inhibition of the proliferation by 56662. The observed inhibitory effects may derive from the growth factor sequestration, and/or IGFBP3 independent effects.

[4] = system: MCF-7 breast cancer cells; assay: MCF-7 proliferation assay; type: cell-based
In short: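 MCF-7 cells seeded at 1,000–6,000/well in serum-free DMEM/F12 with 0.2% BSA and 10 ug/ml transferrin; proliferation induced by growth factors (IGF-1, IGF-2, EGF, TGF-a, Nrgbx, b-FGF, amphiregulin); test chimeras added at plating or 16–20 h later. Growth read after 3–4 days by Alamar blue fluorescence (544/590 nm, 4–6 h).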

[5] = system: hep3B cells; assay: hep3B proliferation assay; type: cell-based, human; conditions: hep3B
In short: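 Cells seeded at 1,000 to 6,000 per well in DMEM/F12 with 0.2% BSA and 10 ug/ml transferrin. Inhibitors added 16-20 h after plating; IGF-1 or other growth factors at plating or 16-20 h later. After 3 to 4 days, growth read by Alamar blue fluorescence at 544/590 nm after 4 to 6 h.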

[6] = system: 3t3; assay: 3t3 proliferation assay; type: cell-based; conditions: PDGF-AB-induced
Method: MCF-7 cells (a breast cancer cell line) were maintained in MEM (GIBCO) plus insulin and NEAA and 10% FBS (Hyclone).
(§3) For the proliferation assay, cells except for HUVEC were seeded at a density of 1,000 to 6,000 in 96 wells in an assay buffer of DMEM/F12 plus 0.2% BSA and 10 ug/ml transferrin. Chemical inhibitors were added after 16-20 hours after plating; IGF-1 or other growth factors or test chimeras in assay buffer were added at the time of plating or 16-20 hours after plating. 5,000 HUVEC ells were plated in poly-L-lysine coated 96 wells in M199 with 1%/FBS and HEPES. After 3 to 4 days of culture, growth was determined by incubating cells with Alamar blue for 4 to 6 hours and then the fluorescence (RFU) at 544/590 nm was read. For long term proliferation assays, cells were plated in the growth media with 5% or 10% FBS at densities of 500 to 10,000 cells per cm^2 growth area and grown for 7 to 21 days. Inhibitors and effectors were added 1-4 days after plating. Cells were exposed to cisplatin or gemcitabine for two days. Medium was renewed twice weekly. At completion, cells were fixed and then stained with Giemsa.

[7] = system: cancer cells; assay: In vitro proliferation of cancer cells stimulated by growth factors (Table 8); type: cell-based
Method: as §3
The BP3-fc construct inhibited the proliferation of cancer cells that had been stimulated by IGF-1, IGF-2, neuregulin, HGF, and bFGF.

[8] = molecular target: T4, VEGF (Homo sapiens, UniProt P15692); assay: In vitro proliferation stimulated by VEGF (Table 8); type: cell-based
T4 construct: purchased R&D Systems
T4 sequence (P15692 27-191 isoform P15692-4): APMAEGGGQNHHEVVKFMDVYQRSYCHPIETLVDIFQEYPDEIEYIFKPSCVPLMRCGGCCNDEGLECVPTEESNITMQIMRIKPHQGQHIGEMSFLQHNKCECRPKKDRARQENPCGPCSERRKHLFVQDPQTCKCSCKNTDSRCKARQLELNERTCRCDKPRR
Method: as §3
(§4) The BP3-VEGF-trap-fc (including the IGFBP3 domains, the VEGFR1 domain 2 and VEGFR2 domain 3 (VEGF-trap (22)), and human immunoglobulin Fc region) broadened the binding to include VEGF-A, VEGF-B, and placental growth factor (PIGF). This BP3-VEGF-trap chimera could inhibit the proliferation stimulated by IGF-1, IGF-2, neuregulin, PDGF-BB, HGF, bFGF, VEGF-A, and PIGF (see, Table 8).

[9] = molecular target: T5, PIGF (Homo sapiens, UniProt P49763); assay: In vitro proliferation stimulated by PIGF (Table 8); type: cell-based
T5 construct: purchased R&D Sciences or SinoBiologicals
T5 sequence (P49763 19-221): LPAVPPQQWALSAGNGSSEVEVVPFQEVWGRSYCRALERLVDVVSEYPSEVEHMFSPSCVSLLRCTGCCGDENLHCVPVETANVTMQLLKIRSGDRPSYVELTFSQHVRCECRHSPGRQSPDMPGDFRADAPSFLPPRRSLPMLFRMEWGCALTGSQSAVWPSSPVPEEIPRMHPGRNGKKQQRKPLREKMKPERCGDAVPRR
Method: as §3, §4

T3 sequence (P01133 971-1023 limits assumed): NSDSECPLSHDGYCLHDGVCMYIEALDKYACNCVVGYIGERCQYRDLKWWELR

56662: IGFBP3-Fc, SEQ ID NO: 7; unmodified IGFBP3 fused with the IgG Fc portion [compound 56662]
Kd [1]: 5.3 nM | Kd nrgEGF [2]: No binding | binding to EGF [3]: did not bind | In vitro inhibition of proliferation, EGF ([4]; EGF-induced, MCF-7 cells): yes | In vitro inhibition of proliferation, IGF-1 ([4]; IGF-1-induced, MCF-7 cells): yes | In vitro inhibition of proliferation, IGF-2 ([4]; IGF-2-induced, MCF-7 cells): yes | In vitro inhibition of proliferation, TGF-α ([4]; TGF-α-induced, MCF-7 cells): yes | In vitro inhibition of proliferation, VEGF-165 ([4]; VEGF-165, MCF-7 cells per footnote): no | In vitro inhibition of proliferation, bFGF ([4]; bFGF-induced, MCF-7 cells): yes | inhibition of FBS-induced proliferation of MCF-7 ([4]; fetal bovine serum, FIG. 1, FIG. 4): inhibited | inhibition of proliferation induced by long-R3-IGF-1 ([4]; high concentrations of 56662, FIG. 2): can inhibit | In vitro inhibition of proliferation, neuregulin ([4]; neuregulin-induced, MCF-7 cells): yes | In vitro inhibition of proliferation, HGF ([5]; HGF-induced): yes (hep3B, HUVEC) | EC50 ([5]; FIG. 11C, read-out: ECK for FBS-induced proliferation): 201 nM | In vitro inhibition of proliferation, PDGF-AB [6]: yes (3t3) | inhibition of proliferation stimulated by bFGF [7]: inh | inhibition of proliferation stimulated by VEGF [8]: no | inhibition of proliferation stimulated by PIGF [9]: no
